Test results reported in patent publication US9051612B2, “Compositions and methods for nucleotide sequencing” (Illumina, Inc., priority 2006, dated 2015).

Biological target: T1, calf intestinal alkaline phosphatase (Bos taurus, UniProt P19111)
T1 construct: purchased USB
Assay: Enzymatic removal of 2′ phosphate blocking group with alkaline phosphatase
Type: biochemical
Settings: aqueous buffer, room temperature

T1 sequence (P19111 20-506): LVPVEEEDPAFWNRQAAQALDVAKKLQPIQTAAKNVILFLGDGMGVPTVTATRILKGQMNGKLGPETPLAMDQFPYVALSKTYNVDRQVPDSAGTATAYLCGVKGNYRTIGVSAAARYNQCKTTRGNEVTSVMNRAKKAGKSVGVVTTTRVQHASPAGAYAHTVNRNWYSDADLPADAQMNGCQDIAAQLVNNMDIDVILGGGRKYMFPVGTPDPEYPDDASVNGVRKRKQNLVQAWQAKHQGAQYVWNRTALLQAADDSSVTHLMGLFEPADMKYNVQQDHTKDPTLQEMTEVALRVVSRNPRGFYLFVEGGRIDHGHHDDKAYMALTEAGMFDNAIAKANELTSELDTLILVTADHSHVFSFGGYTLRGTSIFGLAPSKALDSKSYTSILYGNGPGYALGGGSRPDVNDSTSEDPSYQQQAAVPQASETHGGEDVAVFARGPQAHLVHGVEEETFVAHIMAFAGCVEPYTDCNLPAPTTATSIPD

O=c1ccn(C2OC(COP(=O)(O)OP(=O)(O)OP(=O)(O)O)C(O)C2OP(=O)(O)O)c(=O)[nH]1 (stereo not shown) [2′ reversible terminator, 2′-phosphate UTP]
removal of the phosphate blocking group: can be quantitatively removed using alkaline phosphatase in less than one minute
